Where two headings read alike, the source gives them in different places.
What was measured:
[1] = tested on: GIST following progression on or intolerance to imatinib; conditions: 50 mg once daily Schedule 4/2; 5 of 55 patients; cited from earlier work
[2] = tested on: treatment-naïve RCC; conditions: cited from earlier work
[3] = tested on: gastrointestinal stromal tumor (GIST); conditions: cited from earlier work
[4] = tested on: HCT116 human colon carcinoma xenograft; assay: HCT116 xenograft model in nude mice (hypoxic tumor); assay type: in vivo; conditions: for efficacy at slowing tumor growth in HCT116 (high hypoxia) versus 786O (low hypoxia) tumors: comparison of HCT116 and 786O xenografts in nude mice
Procedure: Human tumor cell lines HCT116 (ATCC #CRL-247; Schroy P C, et al. Cancer 76: 201-209, 1995) and 786-O (ATCC #CRL-1932; Williams R D, et al. In Vitro 12: 623-627, 1976), were obtained from the American Type Culture Collection (Manassus, Va., USA) were cultured using routine methods until a sufficient number of cells were obtained for implantation. Studies were conducted on animals between 7 and 12 weeks of age at implantation. To implant HCT116 tumor cells into nude mice, the cells were trypsinized, washed in PBS and resuspended at a concentration of 75×10^6 cells/ml in McCoy's modified medium with 50% of BD Matrigel® Basement Membrane Matrix (BD Biosciences®, Bedford, Mass., USA). To implant 786-O tumor cells into nude mice, the cells were trypsinized as above, washed in PBS and resuspended at a concentration of 75×10^6 cells/ml in RPMI 1640 medium with 50% of BD Matrigel® Basement Membrane Matrix. Using a 27 gauge needle and 1 cc syringe, 0.1 ml of the cell suspension was injected into the corpus adiposum of nude mice. […] The location permits palpation and measurement of the tumors using external calipers. Tumor volumes (V) were calculated by caliper measurement of the width (W), length (L) and thickness (T) of tumors using the following formula: V=0.5236×(L×W×T).

[5] = tested on: phosphorylated RPS6 (ribosomal protein S6); conditions: TSC1-deficient cells; cited from earlier work
[6] = tested on: locally advanced or metastatic NSCLC; conditions: erlotinib 150 mg orally once daily; cited from earlier work
[7] = tested on: locally advanced or metastatic NSCLC; conditions: maintenance, erlotinib 150 mg once daily; difference not statistically significant; cited from earlier work
[8] = tested on: locally advanced, unresectable or metastatic pancreatic cancer; conditions: 100 mg cohort, arms: gemcitabine plus erlotinib vs gemcitabine alone, cited from earlier work
[9] = biological target: JAK2V617F (Homo sapiens, UniProt O60674, V617F); conditions: cited from earlier work
Chain of JAK2V617F (O60674 whole entry V617F): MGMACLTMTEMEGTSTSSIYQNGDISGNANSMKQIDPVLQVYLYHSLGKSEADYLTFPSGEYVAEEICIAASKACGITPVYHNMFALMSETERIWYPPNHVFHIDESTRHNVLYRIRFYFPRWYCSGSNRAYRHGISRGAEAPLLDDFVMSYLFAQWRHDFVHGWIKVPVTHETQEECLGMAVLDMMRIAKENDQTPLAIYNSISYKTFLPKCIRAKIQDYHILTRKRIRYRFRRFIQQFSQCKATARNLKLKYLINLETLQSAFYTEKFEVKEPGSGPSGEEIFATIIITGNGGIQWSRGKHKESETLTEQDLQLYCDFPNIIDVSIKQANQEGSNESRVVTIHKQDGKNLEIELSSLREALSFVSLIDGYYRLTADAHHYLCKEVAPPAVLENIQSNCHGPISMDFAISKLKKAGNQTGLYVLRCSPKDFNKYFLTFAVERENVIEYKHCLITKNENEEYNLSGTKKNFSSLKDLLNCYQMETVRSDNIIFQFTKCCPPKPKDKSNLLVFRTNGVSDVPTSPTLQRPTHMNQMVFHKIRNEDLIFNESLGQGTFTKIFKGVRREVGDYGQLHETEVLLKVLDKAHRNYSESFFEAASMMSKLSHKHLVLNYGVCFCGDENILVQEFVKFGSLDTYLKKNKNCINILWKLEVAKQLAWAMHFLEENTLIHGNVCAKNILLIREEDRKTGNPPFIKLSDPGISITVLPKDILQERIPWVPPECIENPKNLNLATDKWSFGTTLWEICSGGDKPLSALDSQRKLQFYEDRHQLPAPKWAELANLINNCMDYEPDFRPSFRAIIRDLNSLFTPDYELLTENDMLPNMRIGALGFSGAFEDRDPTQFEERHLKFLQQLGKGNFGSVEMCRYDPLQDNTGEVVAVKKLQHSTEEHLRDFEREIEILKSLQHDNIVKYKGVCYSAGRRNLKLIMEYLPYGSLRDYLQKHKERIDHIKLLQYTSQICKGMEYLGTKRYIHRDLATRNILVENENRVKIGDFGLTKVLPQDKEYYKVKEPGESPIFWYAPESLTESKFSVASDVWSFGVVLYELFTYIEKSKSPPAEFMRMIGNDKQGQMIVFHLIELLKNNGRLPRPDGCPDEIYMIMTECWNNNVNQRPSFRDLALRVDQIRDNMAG

[10] = tested on: 786-O human renal carcinoma xenograft; assay: 786-O xenograft model in nude mice (low hypoxia tumor); assay type: in vivo
Procedure: Human tumor cell lines HCT116 (ATCC #CRL-247; Schroy P C, et al. Cancer 76: 201-209, 1995) and 786-O (ATCC #CRL-1932; Williams R D, et al. In Vitro 12: 623-627, 1976), were obtained from the American Type Culture Collection (Manassus, Va., USA) were cultured using routine methods until a sufficient number of cells were obtained for implantation. Studies were conducted on animals between 7 and 12 weeks of age at implantation. To implant HCT116 tumor cells into nude mice, the cells were trypsinized, washed in PBS and resuspended at a concentration of 75×10^6 cells/ml in McCoy's modified medium with 50% of BD Matrigel® Basement Membrane Matrix (BD Biosciences®, Bedford, Mass., USA). To implant 786-O tumor cells into nude mice, the cells were trypsinized as above, washed in PBS and resuspended at a concentration of 75×10^6 cells/ml in RPMI 1640 medium with 50% of BD Matrigel® Basement Membrane Matrix. Using a 27 gauge needle and 1 cc syringe, 0.1 ml of the cell suspension was injected into the corpus adiposum of nude mice. The corpus adiposum is a fat body located in the ventral abdominal vicera in the right quadrant of the abdomen at the juncture of the os coxae (pelvic bone) and the os femoris (femur). The location permits palpation and measurement of the tumors using external calipers. Tumor volumes (V) were calculated by caliper measurement of the width (W), length (L) and thickness (T) of tumors using the following formula: V=0.5236×(L×W×T). Animals were randomized into treatment groups so that the average tumor volumes of each group were similar at the start of dosing.
A tumor model in which the tumors have relatively high and low levels of LDH5, indicating high and low levels of hypoxia, using human tumor cell lines HCT116 and 786-O was established as set forth in the previous example.
As above, HCT116 and 786-O cells were cultured and implanted into nude mice using the methods in the previous example. Tumor growth was measured using calipers. Prior to treatment with the various agents, tumors were permitted to develop in vivo until they reached approximately 150 mm^3 in volume, which typically required 2-3 weeks following implantation. Animals were randomized into treatment groups so that the average tumor volumes of each group were similar at the start of dosing.
Tumor volume was monitored throughout the course of the study, until up to about 40 days from the date of tumor implantation. The exact number of days of the study depended on a number of factors including, for example, the number of days from implantation for the tumors to reach the desired volume.

[11] = tested on: metastatic pancreatic cancer; conditions: cited from earlier work
[12] = tested on: metastatic colorectal cancer; conditions: arms: bevacizumab plus 5-FU/Leucovorin vs IFL regimen alone; cited from earlier work
[13] = tested on: renal cancer; conditions: cited from earlier work
[14] = tested on: metastatic colorectal cancer; conditions: bevacizumab and chemotherapy vs bevacizumab and chemotherapy alone, cited from earlier work; for median PFS: oxaliplatin stratum, arms: panitumumab
[15] = tested on: metastatic colorectal cancer; conditions: bevacizumab plus 5-FU/Leucovorin vs 5-FU/Leucovorin alone; not statistically significant; cited from earlier work
[16] = tested on: advanced pancreatic cancer; conditions: Phase II, combination chemotherapy with Gemcitabine; cited from earlier work
[17] = tested on: advanced pancreatic cancer; conditions: Phase III, combination with Gemcitabine; cited from earlier work
[18] = tested on: solid tumors; conditions: once-weekly dosing, evaluable patients; cited from earlier work
[19] = tested on: advanced relapsed/refractory NSCLC; conditions: cited from earlier work
[20] = tested on: mCRC pretreated with 5-FU/irinotecan; conditions: cited from earlier work
[21] = tested on: pancreatic cancer; conditions: PTK787 orally daily with gemcitabine, cited from earlier work
[22] = tested on: metastatic colorectal cancer (mCRC); conditions: cited from earlier work
[23] = tested on: metastatic colorectal cancer (mCRC); conditions: cited from earlier work; remark: listed apart in the source
[24] = tested on: EGFR-expressing, metastatic carcinoma of the colon or rectum (mCRC); conditions: panitumumab 6 mg/kg every two weeks plus best supportive care; cited from earlier work

CCN(CC)CCNC(=O)c1c(C)[nH]c(/C=C2\C(=O)Nc3ccc(F)cc32)c1C [sunitinib]
PR rate [1]: 9.1%
PFS versus IFN-α ([2]; 50 mg sunitinib once daily Schedule 4/2): statistically significant advantage for sunitinib over IFN-α in the endpoint of PFS
median OS ([2]; final analysis, arms: sunitinib vs IFN-α): 114.6 weeks
ORR versus IFN-α arm ([2]; in vivo): higher
median OS ([3]; final analysis, sunitinib arm): 72.7 weeks
time to tumor progression (TTP) versus placebo ([3]; interim analysis, 50 mg once daily Schedule 4/2): statistically significant advantage for sunitinib over placebo in TTP
OS HR ([3]; sunitinib vs placebo, final analysis): 0.876
efficacy at slowing tumor growth in HCT116 (high hypoxia) versus 786O (low hypoxia) tumors [4]: not found to work better in the tumors with a higher level of hypoxia

Cn1c(=O)n(-c2ccc(C(C)(C)C#N)cc2)c2c3cc(-c4cnc5ccccc5c4)ccc3ncc21 [BEZ235]
levels of phosphorylated RPS6 [5]: significantly reduce the levels of phosphorylated RPS6
efficacy at slowing tumor growth in HCT116 (high hypoxia) versus 786O (low hypoxia) tumors [4]: not found to work better in the tumors with a higher level of hypoxia

C#Cc1cccc(Nc2ncnc3cc(OCCOC)c(OCCOC)cc23)c1 [erlotinib]
median response duration [6]: 34.3 weeks
progression free survival [6]: 9.9 weeks
survival [6]: 6.7 months
tumor response [6]: 8.9%
overall survival [7]: 12 weeks
progression free survival ([8]; p=0.006): 3.8 months
survival ([8]; p=0.028): 6.4 months
JAK2V617F activity [9]: potent inhibitor of JAK2V617F activity
efficacy at slowing tumor growth in HCT116 (high hypoxia) versus 786O (low hypoxia) tumors [4]: more effective at slowing tumor growth in tumors with high levels of hypoxia
tumor growth rate versus control ([4]; erlotinib 1x/week P.O., p=0.0224): reduced the growth rate of the tumor as compared to control

bevacizumab: recombinant humanized monoclonal IgG1 antibody that binds to and inhibits human vascular endothelial growth factor (VEGF)
tumor burden versus control ([10]; higher dose of bevacizumab (4 mg/kg) i.p., p=0.011): greatest tumor burden
tumor burden versus control ([10]; low dose bevacizumab (1 mg/kg) i.p., p=0.437): no significant difference in tumor burden
progression free survival HR ([11]; bevacizumab vs placebo, both with gemcitabine and erlotinib, P=0.0002): 0.73
median overall survival ([11]; bevacizumab, gemcitabine and erlotinib arm (306 patients)): 7.1 months
progression-free survival [12]: 8.7 months
patients with decreased tumor size ([13]; arms: bevacizumab and interferon-alpha vs interferon-alpha alone): 30%
increase in progression-free survival time ([13]; interferon-alpha with bevacizumab vs interferon-alpha alone): about 5 months
median PFS [14]: 10.5 months
improvement in median survival [15]: 29%
tumor growth versus control ([4]; bevacizumab 4 mg/kg i.p., p=0.0424): reduced the growth of the tumor as compared to control
efficacy at slowing tumor growth in HCT116 (high hypoxia) versus 786O (low hypoxia) tumors [4]: more effective at slowing tumor growth in tumors with high levels of hypoxia
tumor growth versus control ([4]; lower dose of bevacizumab (1 mg/kg) i.p., p=0.1274): small trend to decreased tumor growth

CNC(=O)c1ccccc1Sc1ccc2c(/C=C/c3ccccn3)n[nH]c2c1 [Axitinib, N-Methyl-2-[[3-[(E)-2-pyridin-2-ylethenyl]-1H-indazol-6-yl]sulfanyl]benzamide]
response [16]: good response
survival rates versus Gemcitabine alone [17]: no evidence of improved survival rates

CC(C)c1cc(-c2nnc(O)n2-c2ccc3c(ccn3C)c2)c(O)cc1O [ganetespib]
disease control [18]: more than half of all evaluable patients experienced disease control
disease control rate ([19]; broad population, single agent): 54%
patients with durable, objective responses ([19]; patients with ALK rearrangement, four of eight): 50%
patients who received ganetespib for 16 weeks or more ([19]; patients with ALK rearrangement, seven of eight): 88%
patients with tumor shrinkage ([19]; patients with ALK rearrangement, six of eight): 75%
efficacy at slowing tumor growth in HCT116 (high hypoxia) versus 786O (low hypoxia) tumors [4]: not found to work better in the tumors with a higher level of hypoxia

Clc1ccc(Nc2nnc(Cc3ccncc3)c3ccccc23)cc1 [PTK787, N-(4-chlorophenyl)-4-(pyridin-4-ylmethyl)phthalazin-1-amine]
tumor burden versus control ([10]; 50 mg/kg 5x/week P.O., p=0.7805): no difference in tumor burden
tumor burden versus control ([10]; XL765 study (FIG. 4B), 30 mg/kg 5x/week P.O., p=0.7682): no difference in tumor burden
tumor burden versus control ([10]; erlotinib study (FIG. 5B), 1x/week P.O., p=0.8548): no difference in tumor burden
PFS HR ([20]; CONFIRM 2 - High LDH, N 250, PTK787 1250 mg/day vs placebo): 0.63
PFS HR ([20]; CONFIRM 2 - Low LDH, N 605): 0.95
duration of stable disease [21]: 2-6 months
patients with stable disease as the best response ([21]; six of eleven patients): 55%
PFS HR ([22]; CONFIRM 1 - High LDH, N 316, PTK787 1250 mg/day vs placebo): 0.61
PFS HR ([22]; CONFIRM 1 - Low LDH, N 852): 0.93
PFS HR ([23]; All CONFIRM 1 & 2 High LDH Patients, N 566): 0.62
PFS HR ([23]; All CONFIRM 1 & 2 Patients, N 2023): 0.82
tumor growth versus control ([4]; 50 mg/kg 5x/week P.O., p=0.1209): reduced the growth of the tumor as compared to control
efficacy at slowing tumor growth in HCT116 (high hypoxia) versus 786O (low hypoxia) tumors [4]: more effective at slowing tumor growth in tumors with high levels of hypoxia

panitumumab: recombinant, human IgG2 kappa monoclonal antibody that binds to the human EGFR
median PFS [14]: 8.8 months
PFS hazard ratio ([14]; panitumumab, p-value=0.0024): 1.44
PFS [24]: 96 days
efficacy at slowing tumor growth in HCT116 (high hypoxia) versus 786O (low hypoxia) tumors [4]: not found to work better in the tumors with a higher level of hypoxia

Reference: US20140024030A1, “PRESELECTION OF SUBJECTS FOR THERAPEUTIC TREATMENT WITH OXYGEN SENSITIVE AGENTS BASED IN HYPOXIC STATUS” (priority 2010, published 2014)
